Experimental data: patent US20260207704A1, “STAPLED PEPTIDES AND METHODS THEREOF” (priority 2022, published 2026)
Like-named read-outs stand apart in the source and are kept apart here. One block for each molecule: values may come before it. *1 amine or outer side, *2 acyl side, *3 side chain or, on linkers, in order; H or OH if unused. Bridges are numbered along the chain shown (N, C = ends). Primed or numbered codes have the meaning given here. [ ]: non-standard residue; d: D form. PyrS2(6) = (S)-3-amino-1-((pent-4-en-1-yloxy)carbonyl)pyrrolidine-3-carboxylic acid, stapled with another olefin-containing amino acid residue through the olefin group, O=C(OCCCC=[*:3])N1CC[C@@](N[*:1])(C(=O)[*:2])C1; B5(4) = 2-amino-2-(pent-4-en-1-yl)hept-6-enoic acid, stapled through each of its two olefin groups with other olefin-containing amino acid residues, O=C(C(CCCC=[*:3])(CCCC=[*:4])N[*:1])[*:2]; PyrS2″ = (S)-3-amino-1-((pent-4-en-1-yloxy)carbonyl)pyrrolidine-3-carboxylic acid (olefin stapling residue), C=CCCCOC(=O)N1CC[C@@](N[*:1])(C(=O)[*:2])C1; PyrS2 = (S)-3-amino-1-((pent-4-en-1-yloxy)carbonyl)pyrrolidine-3-carboxylic acid, olefin staple residue, C=CCCCOC(=O)N1CC[C@@](N[*:1])(C(=O)[*:2])C1; PyrS2(5) = (S)-3-amino-1-((pent-4-en-1-yloxy)carbonyl)pyrrolidine-3-carboxylic acid, C=CCCCOC(=O)N1CC[C@@](N[*:1])(C(=O)[*:2])C1; B5″ = 2-amino-2-(pent-4-en-1-yl)hept-6-enoic acid (bis-olefin stapling residue), C=CCCCC(CCCC=C)(N[*:1])C(=O)[*:2]; B5(5) = 2-amino-2-(pent-4-en-1-yl)hept-6-enoic acid (two olefin arms), C=CCCCC(CCCC=C)(N[*:1])C(=O)[*:2]; Phe(3-COOH) = N[C@@H](Cc1cccc(C(=O)O)c1)C(=O)O; 2F3MeF = Cc1cccc(C[C@H](N[*:1])C(=O)[*:2])c1F; Bta = N[C@@H](Cc1csc2ccccc12)C(=O)O; αAllylPro = C=CC[C@@]1(C(=O)O)CCCN1; tBuAla = CC(C)(C)C[C@H](N)C(=O)O; 3Thi = N[C@@H](Cc1ccsc1)C(=O)O; TriAzLys(3) = not defined here; hSer = N[C@@H](CCO)C(=O)O; 2F3MeF(4) = Phe analogue; AsnR = not defined here; GlnR = not defined here; sAla = not defined here; B5 = not defined here; Aib = CC(C)(N)C(=O)O

What was measured:
DLD1 reporter = assay: reporter assay (DLD1 reporter assay); format: cell-based; settings: read-out: DLD1 4% Abs IC50
COLO320DM cells = assay: COLO320DM proliferation assay; format: cell-based, human; settings: read-out: COLO320DM Proliferation Abs IC50
Method: Various technologies can be utilized to assess technologies of the present disclosure. For example, in some embodiments, solubility, LogD, interactions with targets, etc. of various agents such as stapled peptides were assessed using technologies described in WO 2022/261257 (e.g., those in its Examples). In some embodiments, solubility, shake flask LogD, and binding to beta-catenin were assessed. In some embodiments, an assay for assessing interactions, e.g., with beta-catenin, was fluorescence polarization as described in WO 2022/261257. In some embodiments, an assay was Nano-BRET target engagement assay that assessed beta-catenin/TCF4 engagement as described in WO 2022/261257. In some embodiments, an assay was a reporter assay as reported in Example 4 of WO 2022/261257. In some embodiments, an assay was a COLO320DM proliferation assay as reported in Example 4 of WO 2022/261257.
Among other things, provided technologies can inhibit proliferation of various cells including various cancer cells. In some embodiments, provided technologies modulate WNT specific transcription. In some embodiments, provided technologies induce cell cycle arrest. In some embodiments, provided technologies induce G1 cell cycle arrest. In some embodiments, provided technologies increased proportion of cells in G1 phase of cell cycle. As confirmed in FIG. 3, provided technologies can inhibit proliferation of COLO320DM, which is a colorectal cell line comprising various mutations such as APC, TP53, etc., modulate WNT specific transcription such as of AXIN2 and CXCL12, and induce G1 cell cycle arrest. In some embodiments, it was confirmed that provided technologies can reduce proportion of cells in S phase of cell cycle.

beta-catenin (human) [1] = assay: fluorescence polarization; bin >750 nM
beta-catenin (human) [2] = assay: cell-based or functional assay
Target sequence in this assay (B6V8E6 146-665 limits assumed): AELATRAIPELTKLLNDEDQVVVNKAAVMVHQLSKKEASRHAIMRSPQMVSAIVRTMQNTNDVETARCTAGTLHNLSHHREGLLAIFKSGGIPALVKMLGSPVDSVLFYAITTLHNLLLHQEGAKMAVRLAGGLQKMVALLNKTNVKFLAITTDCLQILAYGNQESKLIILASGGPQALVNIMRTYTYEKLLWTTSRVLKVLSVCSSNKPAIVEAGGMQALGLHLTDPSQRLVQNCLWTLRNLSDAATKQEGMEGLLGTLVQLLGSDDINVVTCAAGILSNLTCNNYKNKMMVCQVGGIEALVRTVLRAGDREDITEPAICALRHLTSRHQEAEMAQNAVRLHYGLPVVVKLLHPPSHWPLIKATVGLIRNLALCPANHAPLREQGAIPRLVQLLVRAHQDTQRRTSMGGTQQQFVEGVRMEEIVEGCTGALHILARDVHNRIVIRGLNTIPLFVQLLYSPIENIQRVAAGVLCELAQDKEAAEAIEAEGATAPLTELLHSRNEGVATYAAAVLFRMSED

Molecule: CC(=O)N1CCC[C@]12CC=CCCCC1(CCCC=CCCCOC(=O)N3CC[C@@]4(C3)NC(=O)[C@H](CCCCn3cc(nn3)COC[C@@H](C(=O)N[C@@H](C)C(N)=O)NC(=O)[C@H](Cc3csc5ccccc35)NC(=O)[C@H](Cc3ccsc3)NC4=O)NC(=O)[C@H](Cc3ccccc3)NC(=O)[C@H](C)NC(=O)C(C)(C)NC(=O)[C@H](Cc3cccc(C(=O)O)c3)NC(=O)[C@H](CC(=O)O)NC1=O)NC(=O)[C@H](CC(C)(C)C)NC(=O)[C@H](CC(=O)O)NC2=O (relative stereo) [I-262, Ac-PL3-Asp-Npg-B5-Asp-3COOHF-Aib-Ala-Phe-TriAzLys*3-PyrS2-3Thi-BztA-sCH2S*3-Ala-NH2]
IC50 (DLD1 reporter; DLD1 4%): ≤ 1000 nM
IC50 (COLO320DM cells): ≤ 10000 nM

Molecule: CC(=O)N1CCC[C@]12CC=CCCCC1(CCCC=CCCCOC(=O)N3CC[C@@]4(C3)NC(=O)[C@H](CCCCNC(=O)CC[C@@H](C(=O)N[C@@H](CC(C)C)C(=O)N[C@@H](CO)C(N)=O)NC(=O)[C@H](Cc3csc5ccccc35)NC(=O)[C@H](Cc3ccccc3C(F)(F)F)NC4=O)NC(=O)[C@H](Cc3ccccc3)NC(=O)[C@H](C)NC(=O)C(C)(C)NC(=O)[C@H](Cc3cccc(C(=O)O)c3)NC(=O)[C@H](CC(=O)O)NC1=O)NC(=O)[C@H](CC(C)(C)C)NC(=O)[C@H](CC(=O)O)NC2=O (relative stereo) [I-138, Ac-PL3-Asp-Npg-B5-Asp-3COOHF-Aib-Ala-Phe-Lys*3-PyrS2-2F3MeF-BztA-GlnR*3-Leu-Ser-NH2]
IC50 (DLD1 reporter; DLD1 4%): ≤ 1000 nM
IC50 (COLO320DM cells): ≤ 10000 nM

Molecule: CC(=O)N1CCC[C@]12CC=CCCCC1(CCCC=CCCCOC(=O)N3CC[C@@]4(C3)NC(=O)[C@H](CCCCNC(=O)CC[C@@H](C(=O)N3CCC[C@H]3CO)NC(=O)[C@H](Cc3csc5ccccc35)NC(=O)[C@H](Cc3ccsc3)NC4=O)NC(=O)[C@H](Cc3ccccc3)NC(=O)[C@H](C)NC(=O)[C@H](C)NC(=O)[C@H](Cc3cccc(C(=O)O)c3)NC(=O)[C@H](CC(=O)O)NC1=O)NC(=O)[C@H](CC(C)(C)C)NC(=O)[C@H](CC(=O)O)NC2=O (relative stereo) [I-64, Ac-PL3-Asp-Npg-B5-Asp-3COOHF-Ala-Ala-Phe-Lys*3-PyrS2-3Thi-BztA-GlnR*3-Prool]
IC50 (DLD1 reporter; DLD1 4%): 1000 to 5000 nM
IC50 (COLO320DM cells): 10000 to 20000 nM

Molecule: CC(=O)N1CCC[C@]12CC=CCCCC1(CCCC=CCCCOC(=O)N3CC[C@@]4(C3)NC(=O)[C@H](CCCCn3cc(nn3)C[C@@H](C(=O)N[C@@H](C)C(N)=O)NC(=O)[C@H](Cc3csc5ccccc35)NC(=O)[C@H](Cc3ccsc3)NC4=O)NC(=O)[C@H](Cc3ccccc3)NC(=O)[C@H](C)NC(=O)C(C)(C)NC(=O)[C@H](Cc3cccc(C(=O)O)c3)NC(=O)[C@H](CC(=O)O)NC1=O)NC(=O)[C@H](CC(C)(C)C)NC(=O)[C@H](CC(=O)O)NC2=O (single isomer, unassigned) [I-335, Ac-PL3-Asp-Npg-B5-Asp-3COOHF-Aib-Ala-Phe-TriAzLys*3-PyrS2-3Thi-BztA-sAla*3-Ala-NH2]
IC50 (DLD1 reporter; DLD1 reporter, 4%): ≤ 1000 nM
IC50 (COLO320DM cells): ≤ 10000 nM

Molecule: CCCC[C@@H]1NC(=O)[C@H](Cc2cccc(C(=O)O)c2)NC(=O)[C@H](CC(=O)O)NC(=O)C2(CCCC=CCCCOC(=O)N3CC[C@@]4(C3)NC(=O)[C@H](CCCCNC(=O)CC[C@@H](C(=O)N[C@@H](C)C(N)=O)NC(=O)[C@H](Cc3csc5ccccc35)NC(=O)[C@H](Cc3ccsc3)NC4=O)NC(=O)[C@H](Cc3ccccc3)NC(=O)[C@H](C)NC1=O)CCCC=CC[C@]1(CCCN1C(C)=O)C(=O)N[C@@H](CC(=O)O)C(=O)N[C@@H](CC(C)(C)C)C(=O)N2 (relative stereo) [I-70, Ac-PL3-Asp-Npg-B5-Asp-3COOHF-nLeu-Ala-Phe-Lys*3-PyrS2-3Thi-BztA-GlnR*3-Ala-NH2]
IC50 (DLD1 reporter; DLD1 4%): ≤ 1000 nM
IC50 (COLO320DM cells): ≤ 10000 nM

Molecule: CC(=O)N1CCC[C@]12CC=CCCCC1(CCCC=CCCCOC(=O)N3CC[C@@]4(C3)NC(=O)[C@H](CCCCNC(=O)CC[C@@H](C(=O)N[C@@H](C)C(N)=O)NC(=O)[C@H](Cc3csc5ccccc35)NC(=O)[C@H](Cc3ccccc3C(F)(F)F)NC4=O)NC(=O)[C@H](Cc3ccccc3)NC(=O)[C@H](C)NC(=O)C(C)(C)NC(=O)[C@H](Cc3cccc(C(=O)O)c3)NC(=O)[C@H](CC(=O)O)NC1=O)NC(=O)[C@H](CC(C)(C)C)NC(=O)[C@H](CC(=O)O)NC2=O (single isomer, unassigned) [I-69, Ac-PL3-Asp-Npg-B5-Asp-3COOHF-Aib-Ala-Phe-Lys*3-PyrS2-2F3MeF-BztA-GlnR*3-Ala-NH2]
IC50 (DLD1 reporter; DLD1 4%): ≤ 1000 nM
IC50 (COLO320DM cells): ≤ 10000 nM

Molecule: CC(=O)N1CCC[C@]12CC=CCCCC1(CCCC=CCCCOC(=O)N3CC[C@@]4(C3)NC(=O)[C@H](CCCCNC(=O)CC[C@@H](C(=O)N[C@@H](C)C(N)=O)NC(=O)[C@H](Cc3csc5ccccc35)NC(=O)[C@H](Cc3cccnc3)NC4=O)NC(=O)[C@H](Cc3ccccc3)NC(=O)[C@H](C)NC(=O)C(C)(C)NC(=O)[C@H](Cc3cccc(C(=O)O)c3)NC(=O)[C@H](CC(=O)O)NC1=O)NC(=O)[C@H](CC(C)(C)C)NC(=O)[C@H](CC(=O)O)NC2=O (relative stereo) [I-300, Ac-PL3-Asp-Npg-B5-Asp-3COOHF-Aib-Ala-Phe-Lys*3-PyrS2-3PyrA-BztA-GlnR*3-Ala-NH2]
IC50 (COLO320DM cells): > 20000 nM

Molecule: CC(=O)N1CCC[C@]12CC=CCCCC1(CCCC=CCCCOC(=O)N3CC[C@@]4(C3)NC(=O)[C@H](CCCCNC(=O)CC[C@@H](C(=O)N[C@@H](C)C(N)=O)NC(=O)[C@H](Cc3csc5ccccc35)NC(=O)[C@H](Cc3ccccn3)NC4=O)NC(=O)[C@H](Cc3ccccc3)NC(=O)[C@H](C)NC(=O)C(C)(C)NC(=O)[C@H](Cc3cccc(C(=O)O)c3)NC(=O)[C@H](CC(=O)O)NC1=O)NC(=O)[C@H](CC(C)(C)C)NC(=O)[C@H](CC(=O)O)NC2=O (relative stereo) [I-299, Ac-PL3-Asp-Npg-B5-Asp-3COOHF-Aib-Ala-Phe-Lys*3-PyrS2-2PyrA-BztA-GlnR*3-Ala-NH2]
IC50 (COLO320DM cells): 10000 to 20000 nM

IC50 (beta-catenin (human) [1]): < 1000 nM
B1: I-44 (peptide)
peptide: Ac-[αAllylPro]D[tBuAla][B5(5)]D[Phe(3-COOH)]AAF[AsnR][PyrS2(5)][3Thi][Bta]KA-NH2
modifications: bridge 10-14; reading uncertain; also: PL3/B5/PyrS2 staple links not placed, printed as Ac-PL3-Asp-Npg-B5-Asp-3COOHF-Ala-Ala-Phe-AsnR*3-PyrS2-3Thi-BztA-Lys*3-Ala-NH2

IC50 (beta-catenin (human) [1]): < 1000 nM
B2: I-28 (peptide)
peptide: Ac-[αAllylPro]D[tBuAla][B5(4)]D[Phe(3-COOH)][sAla]AF[TriAzLys(3)][PyrS2(6)][2F3MeF(4)][Bta]Q-NH2
modifications: triazole 7-10; not fully specified (bridges); printed as Ac-PL3-Asp-Npg-B5-Asp-3COOHF-sAla*3-Ala-Phe-TriAzLys*3-PyrS2-2F3MeF-BztA-Gln-NH2; reading uncertain

IC50 (beta-catenin (human) [1]): < 1000 nM
B3: I-26 (peptide)
peptide: Ac-[αAllylPro]D[tBuAla][B5(4)]DD[sAla]AF[TriAzLys(3)][PyrS2(6)][3Thi][Bta]Q-NH2
modifications: triazole 7-10; not fully specified (bridges); printed as Ac-PL3-Asp-Npg-B5-Asp-Asp-sAla*3-Ala-Phe-TriAzLys*3-PyrS2-3Thi-BztA-Gln-NH2; reading uncertain

IC50 (beta-catenin (human) [1]): < 1000 nM
B4: I-147 (peptide)
peptide: Ac-[αAllylPro][hSer][tBuAla][B5″]D[Phe(3-COOH)][Aib]AFK[PyrS2″][2F3MeF][Bta][GlnR]LS-NH2
modifications: bridge 10-14; reading uncertain; also: PL3-B5 and PyrS2 links not placed, printed as Ac-PL3-Hse-Npg-B5-Asp-3COOHF-Aib-Ala-Phe-Lys*3-PyrS2-2F3MeF-BztA-GlnR*3-Leu-Ser-NH2

NanoBRET Abs IC50 (beta-catenin (human) [2]): > 10000 nM
IC50 (beta-catenin (human) [1]): < 1000 nM
B5: I-133 (peptide)
peptide: Ac-[αAllylPro]D[tBuAla][B5]D[Phe(3-COOH)][GlnR]AFL[PyrS2][2F3MeF][Bta][GlnR](39N2spiroundecane)A-NH2
modifications: staple 1-4, 4-11 (inferred); not fully specified; printed as Ac-PL3-Asp-Npg-B5-Asp-3COOHF-GlnR-Ala-Phe-Leu-PyrS2-2F3MeF-BztA-[39N2spiroundecane]GlnR-Ala-NH2; reading uncertain; also: staple C=C reduced to CH2-CH2

IC50 (beta-catenin (human) [1]): < 1000 nM
B6: I-35 (peptide)
peptide: Ac-[αAllylPro]D[tBuAla][B5(5)]D[Phe(3-COOH)]AAF[AsnR][PyrS2(5)][3Thi][Bta]K-NH2
modifications: bridge 10-14; not fully specified (bridges); printed as Ac-PL3-Asp-Npg-B5-Asp-3COOHF-Ala-Ala-Phe-AsnR*3-PyrS2-3Thi-BztA-Lys*3-NH2; reading uncertain
